Experimental data as given in PubChem BioAssay AID1996.
Values after ≈ are worked out from the molar mass of the structure shown.

Conditions: buffer; pH 7.4; 200.0 µM
`COc1ccccc1-n1c(-c2ccccc2Cl)nc2ccccc2c1=O` gave a solubility kinetic of 36.2 µg/mL (≈ 99.8 µM). For `COc1ccccc1C1(O)C(=O)Nc2ccc(C)cc21` (stereo not drawn), the solubility kinetic was greater than 40.4 µg/mL. With `COc1ccc(OC)c(NC(=O)COC(=O)CCNc2ccccc2OC)c1` the solubility kinetic was 40.8 µg/mL (≈ 105 µM). In the case of `OCC(O)C1OC(Nc2ccc(Br)cc2)C(O)C1O` (stereo not drawn), the solubility kinetic is reported as greater than 50.1 µg/mL. Compound `Cc1cc(C)nc(NC(=O)c2c(Cl)cccc2Cl)n1` has a solubility kinetic greater than 44.4 µg/mL. `CCOC(=O)C1CCN(S(=O)(=O)c2ccc3c4c(cccc24)C(=O)N3CC)CC1` showed a solubility kinetic of 10.4 µg/mL (≈ 25 µM). Work on `CC(=O)N1CCN(CC(c2ccccc2)c2ccccc2)CC1` yielded a solubility kinetic of 38.7 µg/mL (≈ 125 µM). `COc1cc(OC)c(NC(=O)N2CCOCC2)cc1Cl` showed a solubility kinetic greater than 45.1 µg/mL. Compound `O=C1CC(/C=C/c2ccccc2)=Nc2ccccc2N1` has a solubility kinetic of 2.1 µg/mL (≈ 8.01 µM). For `Cc1cccc(-c2nnc(SCC(=O)Nc3cc(C)on3)n2C)c1`, the solubility kinetic was greater than 51.5 µg/mL. Compound `N#C/C(=C/c1ccc(-c2ccccc2[N+](=O)[O-])o1)C(N)=O` has a solubility kinetic of 1.7 µg/mL (≈ 6 µM). With `Cc1cc(=O)[nH]c(Nc2ccc(N(C)C)cc2)n1` the solubility kinetic was greater than 36.6 µg/mL. Compound `CSCCC(NC(=O)c1ccco1)C(=O)NCCc1ccc(Cl)cc1` (stereo not drawn) has a solubility kinetic of 19.6 µg/mL (≈ 51.5 µM). In the case of `Cc1nc(SCc2ccc(F)cc2)c2oc3ccccc3c2n1`, the solubility kinetic is reported as less than 0.3 µg/mL. `O=C(NCc1ccc(Cl)cc1)[C@@H]1CCCN1S(=O)(=O)c1ccc(Cl)cc1` showed a solubility kinetic of 31.3 µg/mL (≈ 75.7 µM). For `Cc1cc(C)n(CC(=O)NCCC2=CCCCC2)n1`, the solubility kinetic was greater than 39.2 µg/mL. Compound `O=C(CCN1N=C(c2ccccc2)CCC1=O)NC1CCCC1` has a solubility kinetic greater than 47 µg/mL. Compound `O=C1c2ccccc2C(=O)N1CCOc1ccccc1Br` has a solubility kinetic of 4 µg/mL (≈ 11.6 µM). In the case of `O=C(C=C1NCCN1)c1ccccc1`, the solubility kinetic is reported as greater than 28.2 µg/mL. Compound `N=C1C(c2ccccc2)=C(O)CN1c1cccc2ccccc12` has a solubility kinetic greater than 45.1 µg/mL. For `CC(C)Cc1ccc(S(=O)(=O)Nc2cccnc2)cc1`, the solubility kinetic was 14.3 µg/mL (≈ 49.2 µM). `O=C(N/C(=C\c1ccc(Cl)cc1)C(=O)N1CCCCC1)c1ccco1` gave a solubility kinetic greater than 53.8 µg/mL. For `COc1ccc(S(=O)(=O)N2CCN(c3ccccn3)CC2)cc1[N+](=O)[O-]`, the solubility kinetic was 5.8 µg/mL (≈ 15.3 µM). `COc1cc(/C(C)=N/N2CCOCC2)cc(OC)c1OC` gave a solubility kinetic greater than 44.2 µg/mL. In the case of `Cc1cccnc1NC(=O)Cn1c(=O)oc2ccccc21`, the solubility kinetic is reported as 41.2 µg/mL (≈ 145 µM). In the case of `C=CCN(c1ccccc1OC)S(=O)(=O)c1cccc(C(=O)OCC(=O)N2CCOCC2)c1`, the solubility kinetic is reported as greater than 71.2 µg/mL. Work on `COc1cc(OC)cc(C(=O)Nc2cccc3cccnc23)c1` yielded a solubility kinetic of less than 0.3 µg/mL. In the case of `Cc1cccc(Cc2cnc(NC(=O)C3=NCCN3)s2)c1`, the solubility kinetic is reported as 7 µg/mL (≈ 23.3 µM). In the case of `COc1ccc(NC(=O)C2CCCN(C(=O)Nc3ccc(OC)cc3)C2)cc1` (stereo not drawn), the solubility kinetic is reported as 7.5 µg/mL (≈ 19.6 µM). `CCOc1ccc2oc(C(=O)N3CCCN(C)CC3)c(C)c2c1.Cl` gave a solubility kinetic greater than 52.9 µg/mL. Work on `Cc1c(C(=O)Nc2ccc3c(c2)OCCO3)cnn1C` yielded a solubility kinetic greater than 41 µg/mL. With `O=C1CC(/C=C/c2cccnc2)=Nc2ccccc2N1` the solubility kinetic was 24.4 µg/mL (≈ 92.7 µM). `Cc1ccc(C(=O)O/N=C(\N)Cc2cccs2)cc1[N+](=O)[O-]` gave a solubility kinetic of 39.9 µg/mL (≈ 125 µM). `Cc1cc(C)c2c(n1)sc1c(=O)n(CC(=O)c3ccccc3)cnc12` showed a solubility kinetic of less than 0.2 µg/mL. `Cc1ccc2c(=O)c(CN3CCCCCC3)c(C)[nH]c2c1C` gave a solubility kinetic of 40.6 µg/mL (≈ 136 µM). `COc1ccc(C)c(NC(=O)C2CC(=O)NC3=C2C(=O)CCC3)c1` (stereo not drawn) gave a solubility kinetic of 47.5 µg/mL (≈ 145 µM). Work on `CCCn1c(=O)c(Br)cn(-c2ccccc2C)c1=O` yielded a solubility kinetic of 48.2 µg/mL (≈ 149 µM). Work on `O=C(Nc1nc2ccccc2[nH]1)c1ccccc1O` yielded a solubility kinetic of 0.2 µg/mL (≈ 0.79 µM). Work on `CN1CCN(c2ccccc2NC(=O)c2c(F)cccc2F)CC1` yielded a solubility kinetic greater than 49.7 µg/mL. For `Cc1nc2ccccc2c(=O)n1CCc1ccc(O)cc1`, the solubility kinetic was greater than 42 µg/mL. In the case of `CC(=O)N(C)c1ccc(NC(=O)N2CCOCC2)cc1`, the solubility kinetic is reported as 41.5 µg/mL (≈ 150 µM). In the case of `CNC(=O)Cn1ncc2c3ccccc3n(C)c2c1=O`, the solubility kinetic is reported as greater than 40.5 µg/mL. `O=C(COc1ccc2c(c1)CCC2)Nc1ccccn1` gave a solubility kinetic of 14.2 µg/mL (≈ 52.9 µM). In the case of `CC(C)CCOc1ccc(C(=O)C[N+]2(C)CCOCC2)cc1.[I-]`, the solubility kinetic is reported as 38.4 µg/mL. For `Cc1cc(=O)n2cccc(O)c2n1.Cl`, the solubility kinetic was 21.7 µg/mL. With `NS(=O)(=O)c1ccc(CCNC(=O)CNC(=O)Cc2ccccc2)cc1` the solubility kinetic was greater than 56.3 µg/mL. Compound `CCc1nc(Nc2cccc(O)c2)c2oc3ccccc3c2n1.Cl` has a solubility kinetic of 0.5 µg/mL. Compound `COc1ccc(NC(=O)c2sc3nc(C)cc(C)c3c2N)cc1` has a solubility kinetic of less than 0.2 µg/mL. With `CCCCCc1c(O)nc(SCCN(CC)CC)[nH]c1=O.Cl` the solubility kinetic was greater than 52.5 µg/mL. `COc1ccccc1NC(=O)N1CCN(CCc2ccccc2)CC1` showed a solubility kinetic of 50.7 µg/mL (≈ 149 µM). `Cc1nc2ccc(NC(=O)c3ccc(=O)[nH]c3)cc2s1` gave a solubility kinetic of 13.7 µg/mL (≈ 48 µM). With `Cc1c(CCO)c(=O)n2c([nH]c3ccccc32)c1C#N` the solubility kinetic was 19 µg/mL (≈ 71.1 µM). For `O=C(Nc1ccc(Cl)cc1C(=O)N1CCCCC1)c1ccco1`, the solubility kinetic was 46.6 µg/mL (≈ 140 µM). Compound `O=c1[nH]cnc2sc3c(c12)CN(Cc1ccccc1)CC3` has a solubility kinetic of 21.3 µg/mL (≈ 71.6 µM). In the case of `CN(CC(=O)Nc1cccc(S(=O)(=O)N2CCCC2)c1)Cc1ccccc1`, the solubility kinetic is reported as 17.8 µg/mL (≈ 45.9 µM). `Cc1ccc(S(=O)(=O)N2CCC3(CC2)OCCO3)s1` showed a solubility kinetic greater than 45.5 µg/mL. `CCCOc1ccc(C(=O)Nc2cccnc2)cc1` showed a solubility kinetic of 36 µg/mL (≈ 140 µM). `O=C(CN1CCN(Cc2ccccc2)CC1)Nc1ccccc1` showed a solubility kinetic greater than 46.4 µg/mL.
